As a reminder, the EC50 is the midpoint of the concentration-response curve.

These results are taken from patent publication US9840511B2, “2-(aryl or heteroaryl-)phenyl (AZA)benzofuran compounds for the treatment of hepatitis C” (BRISTOL-MYERS SQUIBB COMPANY, priority 2014, dated 2017).

Where two headings read alike, the source gives them in different places.

The test system of data set [1] is genotype 1b (Con-1) HCV replicon. Briefly: HCV replicon luciferase assay. In kind it is cell-based. To be noted: Hepatitis C virus, 72 h, Huh-7 cells, genotype 1b replicon, Renilla luciferase, 3 days incubation. The procedure: Cell lines. The cell lines used to evaluate compounds consist of a human hepatocyte derived cell line (Huh-7) that constitutively expresses a genotype 1b (Con-1) HCV replicon or a genotype 1b (Con-1) HCV replicon with an asparagine replacing the cysteine at amino acid 316, or a genotype 2a (JFH-1) replicon, containing a Renilla luciferase reporter gene. These cells were maintained in Dulbecco's modified Eagle medium (DMEM) containing 10% FBS, 100 U/mL penicillin/streptomycin and 1.0 mg/mL G418.
HCV replicon luciferase assay. To evaluate compound efficacy, titrated compounds were transferred to sterile 384-well tissue culture treated plates, and the plates were seeded with HCV replicon cells (50 μL at a density of 2.4×10^3 cells/well) in DMEM containing 4% FBS (final DMSO concentration at 0.5%). After 3 days incubation at 37° C., cells were analyzed for Renilla Luciferase activity using the EnduRen substrate (Promega cat #E6485) according to the manufacturer's directions. Briefly, the EnduRen substrate was diluted in DMEM and then added to the plates to a final concentration of 7.5 μM. The plates were incubated for at least 1 h at 37° C. then read on a Viewlux Imager (PerkinElmer) using a luminescence program. The 50% effective concentration (EC50) was calculated using the four-parameter logistic formula noted above.
Compound EC50 data is expressed as A:<100 nM; B=100-1000 nM; C>1000 nM).

For data set [2] the following is noted: extended dosing of the combination regimens; cited from earlier work.
Data set [3] concerns HCV. The note with it: combination therapy; cited from earlier work.

For `CCN(c1cc2oc(-c3ccc(-n4cccn4)cc3)c(C(=O)NC)c2cc1-c1cccc(C(=O)NC(C)(C)C)c1)S(C)(=O)=O` [Compound 1001], the figures for the EC50 in data set [1] (read-out: EC50 (uM) lb) and in data set [1] (read-out: EC50 lb (class)) were 0.017 µM and < 0.1 µM, respectively.
In the same order, the values of `CCN(c1cc2oc(-c3ccc(-n4ccnn4)cc3)c(C(=O)NC)c2cc1-c1cccc(C(=O)NC(C)(C)C)c1)S(C)(=O)=O` [Compound 1002] are 0.069 µM and < 0.1 µM.
Take `CCN(c1cc2oc(-c3ccc(-n4nccn4)cc3)c(C(=O)NC)c2cc1-c1cccc(C(=O)NC(C)(C)C)c1)S(C)(=O)=O` [Compound 1003]: the EC50 in data set [1] (read-out: EC50 lb (class)) is < 0.1 µM.
The same measure, in the same setting: to `CNC(=O)c1c(-c2ccc(-n3ccc(C(F)(F)F)n3)cc2)oc2nc(-n3ccc(C(F)(F)F)n3)c(-c3cccc(C(=O)NC(C)(C)C)c3)cc12` [Compound 2001] belongs 0.1 to 1 µM; to `CNC(=O)c1c(-c2ccc(-n3cc(C(F)(F)F)cn3)cc2)oc2nc(-n3cc(C(F)(F)F)cn3)c(-c3cccc(C(=O)NC(C)(C)C)c3)cc12` [Compound 2002], > 1 µM.
For `CNC(=O)c1c(-c2ccc(-n3ccnn3)cc2)oc2nc(CCC(F)(F)F)c(-c3cccc(C(=O)NC(C)(C)C)c3)cc12` [Compound 3001], the values for the EC50 in data set [1] (read-out: EC50 (uM) lb) and in data set [1] (read-out: EC50 lb (class)) were 0.035 µM and < 0.1 µM, respectively.
For the compound `CNC(=O)c1c(-c2ccc(-n3ncnc3C)cc2)oc2nc(CCC(F)(F)F)c(-c3cccc(C(=O)NC(C)(C)C)c3)cc12` [Compound 3002], in data set [1] (read-out: EC50 lb (class)), the EC50 is > 1 µM.
In the case of `CNC(=O)c1c(-c2ccc(-n3cnnc3C)cc2)oc2nc(CCC(F)(F)F)c(-c3cccc(C(=O)NC(C)(C)C)c3)cc12` [Compound 3003], the EC50 is 3.32 µM in data set [1] (read-out: EC50 (uM) lb) and > 1 µM in data set [1] (read-out: EC50 lb (class)).
Take `CNC(=O)c1c(-c2ccc(-n3cnc(C)n3)cc2)oc2nc(CCC(F)(F)F)c(-c3cccc(C(=O)NC(C)(C)C)c3)cc12` [Compound 3004]: the EC50 in data set [1] (read-out: EC50 lb (class)) lay in the range of 0.1 to 1 µM.
Still for that read-out and setting: to `CNC(=O)c1c(-c2ccc(-n3ccnc3)cc2)oc2nc(CCC(F)(F)F)c(-c3cccc(C(=O)NC(C)(C)C)c3)cc12` [Compound 3006] belongs 0.1 to 1 µM; to `CNC(=O)c1c(-c2ccc(-n3cncn3)cc2)oc2nc(CCC(F)(F)F)c(-c3cccc(C(=O)NC(C)(C)C)c3)cc12` [Compound 3007], 0.1 to 1 µM.
Take `CNC(=O)c1c(-c2ccc(-n3cc(C)cn3)cc2)oc2nc(CCC(F)(F)F)c(-c3cccc(C(=O)NC(C)(C)C)c3)cc12` [Compound 3008]: the EC50 in data set [1] (read-out: EC50 lb (class)) is > 1 µM.
The same measure, in the same setting: the result for `CNC(=O)c1c(-c2ccc(-n3cnc(C)c3)cc2)oc2nc(CCC(F)(F)F)c(-c3cccc(C(=O)NC(C)(C)C)c3)cc12` [Compound 3009] reads > 1 µM.
With `CNC(=O)c1c(-c2ccc(-n3ccc(C)n3)cc2)oc2nc(CCC(F)(F)F)c(-c3cccc(C(=O)NC(C)(C)C)c3)cc12` [Compound 3010], the EC50 in data set [1] (read-out: EC50 (uM) lb) is 0.28 µM; in data set [1] (read-out: EC50 lb (class)) it was 0.1 to 1 µM.
Regarding `CNC(=O)c1c(-c2ccc(-c3ncccc3O)cc2)oc2nc(CCC(F)(F)F)c(-c3cccc(C(=O)NC(C)(C)C)c3)cc12` [Compound 4001], the EC50 in data set [1] (read-out: EC50 lb (class)) was 0.1 to 1 µM.
With `CNC(=O)c1c(-c2ccc(F)cc2)oc2cc(N(CCO)S(C)(=O)=O)c(C3CC3)cc12` [HCV-796], the hepatic toxicity entry in data set [2] is “hepatic toxicity observed”.
On to alpha-interferon and ribavirin, for which the “sustained efficacy, share of patients” value in data set [3] is 40%.
